Counter-ions that a name gives are not always drawn.
molecular target: CDK12/CycK (Homo sapiens, UniProt Q9NYV4); experiment: Inhibition of CDK12 (ADP-Glo kinase assay); format: biochemical; details: 60 nM CDK12/CycK, 30 minutes pre-incubation, 1 μM ATP, 0.5 μM RBER-IRStide substrate, 1 h at 25° C., read-out: CDK12/cyclin K IC50
Protocol: Assay buffer comprised 50 mM HEPES pH 7.5, 1 mM DTT, 20 mM MgCl2, 3 mM MnCl2, 3 μM Na3VO4 and 50 μg/ml PEG8000. Kinase reactions were carried out in 384-well Optiplates™ (PerkinElmer 6007299). Test compounds were dissolved & diluted in dimethyl sulfoxide (DMSO) and cross diluted into assay buffer with a final DMSO concentration of 1% (v/v) in the assay. Test compounds (or 1% DMSO in control and blank wells) were pre-incubated with 60 nM CDK12/CycK for 30 minutes. After this time 1 μM Adenosine-5′-triphosphate (ATP) and 0.5 μM RBER-IRStide substrate (ProQinase 0863-0000-1) were added to commence the kinase reaction. Incubations were carried out for 1 h at 25° C. with kinase activity determined using the ADP-Glo™ reagent from Promega according to the manufacturer's instructions. Light generated is proportional to kinase activity and measured using a luminometer (EnVision, PerkinElmer). The signal obtained in the blank wells (containing no kinase) was subtracted from all other wells and IC50 values were determined by fitting a sigmoidal curve to % inhibition of control versus Log10 compound concentration.

CDK12/CycK, sequence (Q9NYV4 whole entry): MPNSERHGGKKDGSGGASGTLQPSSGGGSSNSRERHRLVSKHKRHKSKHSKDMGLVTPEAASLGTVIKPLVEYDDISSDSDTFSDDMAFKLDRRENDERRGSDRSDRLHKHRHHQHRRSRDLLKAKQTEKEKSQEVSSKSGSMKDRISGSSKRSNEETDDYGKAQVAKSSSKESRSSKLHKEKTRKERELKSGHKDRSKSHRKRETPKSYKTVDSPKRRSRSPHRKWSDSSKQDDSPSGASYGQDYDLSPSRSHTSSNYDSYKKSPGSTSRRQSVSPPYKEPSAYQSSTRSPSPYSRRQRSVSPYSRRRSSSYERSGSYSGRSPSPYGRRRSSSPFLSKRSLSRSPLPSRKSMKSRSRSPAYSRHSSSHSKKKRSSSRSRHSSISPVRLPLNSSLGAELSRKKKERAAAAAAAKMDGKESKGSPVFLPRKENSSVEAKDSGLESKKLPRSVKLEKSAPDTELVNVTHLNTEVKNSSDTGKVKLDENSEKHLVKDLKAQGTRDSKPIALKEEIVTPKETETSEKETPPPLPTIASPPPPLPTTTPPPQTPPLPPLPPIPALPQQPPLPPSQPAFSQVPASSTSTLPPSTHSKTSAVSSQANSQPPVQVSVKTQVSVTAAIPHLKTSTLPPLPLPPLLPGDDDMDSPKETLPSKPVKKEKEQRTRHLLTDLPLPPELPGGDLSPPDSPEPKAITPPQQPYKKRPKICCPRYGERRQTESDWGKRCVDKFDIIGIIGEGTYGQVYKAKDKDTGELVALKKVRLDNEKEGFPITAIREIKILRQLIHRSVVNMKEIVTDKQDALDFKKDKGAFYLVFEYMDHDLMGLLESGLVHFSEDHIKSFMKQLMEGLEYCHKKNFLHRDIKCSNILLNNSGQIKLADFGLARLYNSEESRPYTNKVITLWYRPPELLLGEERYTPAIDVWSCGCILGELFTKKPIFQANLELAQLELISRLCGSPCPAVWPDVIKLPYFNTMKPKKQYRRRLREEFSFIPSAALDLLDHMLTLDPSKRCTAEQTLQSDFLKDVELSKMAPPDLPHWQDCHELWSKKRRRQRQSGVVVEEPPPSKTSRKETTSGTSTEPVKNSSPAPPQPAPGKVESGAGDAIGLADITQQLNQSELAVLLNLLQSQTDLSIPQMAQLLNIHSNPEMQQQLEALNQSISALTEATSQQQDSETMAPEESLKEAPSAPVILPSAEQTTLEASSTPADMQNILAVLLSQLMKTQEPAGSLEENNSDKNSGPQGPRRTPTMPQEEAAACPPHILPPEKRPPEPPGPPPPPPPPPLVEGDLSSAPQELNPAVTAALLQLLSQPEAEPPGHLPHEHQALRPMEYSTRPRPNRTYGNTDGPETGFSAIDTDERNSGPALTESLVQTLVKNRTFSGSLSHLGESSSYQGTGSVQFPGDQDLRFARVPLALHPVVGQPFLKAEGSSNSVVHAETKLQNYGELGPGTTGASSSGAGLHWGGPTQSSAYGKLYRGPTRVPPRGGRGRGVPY
CDK12/CycK, sequence (O75909 whole entry partner): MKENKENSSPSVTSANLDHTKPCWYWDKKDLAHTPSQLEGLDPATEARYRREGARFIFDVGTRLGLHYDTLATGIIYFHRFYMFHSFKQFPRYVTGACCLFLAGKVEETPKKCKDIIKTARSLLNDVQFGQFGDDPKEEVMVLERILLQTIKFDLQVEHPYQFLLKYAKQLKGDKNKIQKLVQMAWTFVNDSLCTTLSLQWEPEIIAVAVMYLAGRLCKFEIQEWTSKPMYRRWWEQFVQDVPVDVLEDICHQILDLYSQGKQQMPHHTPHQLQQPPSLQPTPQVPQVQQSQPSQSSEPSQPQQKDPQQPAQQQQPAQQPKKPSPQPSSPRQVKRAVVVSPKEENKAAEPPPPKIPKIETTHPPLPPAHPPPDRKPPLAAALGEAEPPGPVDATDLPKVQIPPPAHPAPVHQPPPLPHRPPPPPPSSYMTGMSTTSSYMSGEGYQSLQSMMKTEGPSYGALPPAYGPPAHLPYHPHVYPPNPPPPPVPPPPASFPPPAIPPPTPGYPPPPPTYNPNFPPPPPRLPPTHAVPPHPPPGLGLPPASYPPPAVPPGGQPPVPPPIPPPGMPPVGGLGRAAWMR

| IC50 | SMILES |
| --- | --- |
| < 100 nM | C=CC(=O)Nc1cccc(C(=O)Nc2cccc(-c3cc4c(-c5cnn6ncccc56)ccnc4[nH]3)c2)c1 [Example 115, 3-Acrylamido-N-(3-(4-(pyrazolo[1,5-b]pyridazin-3-yl)-1H-pyrrolo[2,3-b]pyridin-2-yl)phenyl)benzamide] |
| 1000 to 30000 nM | CCn1cc(-c2ccnc3[nH]ccc23)nn1 [Example 133, 4-(1-Ethyl-1H-1,2,3-triazol-4-yl)-1H-pyrrolo[2,3-b]pyridine] |
| < 100 nM | C#CC(=O)N1CCC(C(=O)N2CCC(c3cc4c(-c5cnn6ncccc56)ccnc4[nH]3)C2)CC1 (centres unmarked) [Example 147, 1-(4-(3-(4-(Pyrazolo[1,5-b]pyridazin-3-yl)-1H-pyrrolo[2,3-b]pyridin-2-yl)pyrrolidine-1-carbonyl)piperidin-1-yl)prop-2-yn-1-one] |
| < 100 nM | CN(C)C/C=C/C(=O)Nc1cncc(C(=O)N2CC[C@H](c3cc4c(-c5cnn6ncccc56)ccnc4[nH]3)C2)c1 [Example 68, (S,E)-4-(Dimethylamino)-N-(5-(3-(4-(pyrazolo[1,5-b]pyridazin-3-yl)-1H-pyrrolo[2,3-b]pyridin-2-yl)pyrrolidine-1-carbonyl)pyridin-3-yl)but-2-enamide] |
| 1000 to 30000 nM | CC(C)(C)OC(=O)N1CCN(Cc2cc3c(-c4cnn5ncccc45)ccnc3[nH]2)CC1 [Example 15, tert-Butyl 4-((4-(pyrazolo[1,5-b]pyridazin-3-yl)-1H-pyrrolo[2,3-b]pyridin-2-yl)methyl)piperazine-1-carboxylate] |
| 1000 to 30000 nM | c1cnn2ncc(-c3ccnc4[nH]c(CN5CCOCC5)cc34)c2c1 [Example 12, 4-((4-(Pyrazolo[1,5-b]pyridazin-3-yl)-1H-pyrrolo[2,3-b]pyridin-2-yl)methyl)morpholine] |
| 100 to 1000 nM | C=CC(=O)N[C@@H]1CC[C@@H](C(=O)NCCc2cc3c(-c4cnn5ncccc45)ccnc3[nH]2)C1 [Example 64, (1R,3R)-3-Acrylamido-N-(2-(4-(pyrazolo[1,5-b]pyridazin-3-yl)-1H-pyrrolo[2,3-b]pyridin-2-yl)ethyl)cyclopentane-1-carboxamide] |
| 100 to 1000 nM | NCCc1cc2c(-c3cnn4ncccc34)c(Cl)cnc2[nH]1 [Example 101, 2-(5-chloro-4-(pyrazolo[1,5-b]pyridazin-3-yl)-1H-pyrrolo[2,3-b]pyridin-2-yl)ethan-1-amine] |
| < 100 nM | C=CC(=O)N1CCC[C@H]1C(=O)NCCc1cc2c(-c3cnn4ncccc34)c(Cl)cnc2[nH]1 [Example 53, (S)-1-Acryloyl-N-(2-(5-chloro-4-(pyrazolo[1,5-b]pyridazin-3-yl)-1H-pyrrolo[2,3-b]pyridin-2-yl)ethyl)pyrrolidine-2-carboxamide] |
| 100 to 1000 nM | N#CCC(=O)N1CCC[C@H]1C(=O)NCCc1cc2c(-c3cnn4ncccc34)ccnc2[nH]1 [Example 201, (S)-1-(2-Cyanoacetyl)-N-(2-(4-(pyrazolo[1,5-b]pyridazin-3-yl)-1H-pyrrolo[2,3-b]pyridin-2-yl)ethyl)pyrrolidine-2-carboxamide] |
| < 100 nM | C=CC(=O)Nc1ccc(C(=O)N2CC[C@@H](c3cc4c(-c5cnn6ncccc56)ccnc4[nH]3)C2)cc1 (single isomer, unassigned) [Example 148, N-(4-(3-(4-(Pyrazolo[1,5-b]pyridazin-3-yl)-1H-pyrrolo[2,3-b]pyridin-2-yl)pyrrolidine-1-carbonyl)phenyl)acrylamide] |
| 1000 to 30000 nM | O=C(NCCc1cc2c(-c3cnn4ncccc34)ccnc2[nH]1)[C@@H]1CCCN1C(=O)/C=C/CN1CCCC1 [Example 85, (S,E)-N-(2-(4-(pyrazolo[1,5-b]pyridazin-3-yl)-1H-pyrrolo[2,3-b]pyridin-2-yl)ethyl)-1-(4-(pyrrolidin-1-yl)but-2-enoyl)pyrrolidine-2-carboxamide] |
| 1000 to 30000 nM | C=CC(=O)N1CCC2(CCCN(Cc3cc4c(-c5cnn6ncccc56)ccnc4[nH]3)C2)C1 (centres unmarked) [Example 198, 1-(7-((4-(Pyrazolo[1,5-b]pyridazin-3-yl)-1H-pyrrolo[2,3-b]pyridin-2-yl)methyl)-2,7-diazaspiro[4.5]decan-2-yl)prop-2-en-1-one] |
| 100 to 1000 nM | CN(C)C/C=C/C(=O)N1CCCC[C@@H]1C(=O)NCCc1cc2c(-c3cnn4ncccc34)ccnc2[nH]1 [Example 88, (R,E)-1-(4-(Dimethylamino)but-2-enoyl)-N-(2-(4-(pyrazolo[1,5-b]pyridazin-3-yl)-1H-pyrrolo[2,3-b]pyridin-2-yl)ethyl)piperidine-2-carboxamide Formate Salt] |
| 100 to 1000 nM | C=CC(=O)Nc1cccc(C(=O)NCc2cc3c(-c4cnn5ncccc45)ccnc3[nH]2)c1 [Example 180, 3-Acrylamido-N-((4-(pyrazolo[1,5-b]pyridazin-3-yl)-1H-pyrrolo[2,3-b]pyridin-2-yl)methyl)benzamide] |
| 100 to 1000 nM | O=C(NCCc1cc2c(-c3cnn4ncccc34)ccnc2[nH]1)[C@H]1CCCN1C(=O)CO [Example 79, (R)-1-(2-Hydroxyacetyl)-N-(2-(4-(pyrazolo[1,5-b]pyridazin-3-yl)-1H-pyrrolo[2,3-b]pyridin-2-yl)ethyl)pyrrolidine-2-carboxamide] |
| < 100 nM | O=C(CCl)N1CCC(C(=O)N2CCC(c3cc4c(-c5cnn6ncccc56)ccnc4[nH]3)C2)CC1 (centres unmarked) [Example 158, 2-Chloro-1-(4-(3-(4-(pyrazolo[1,5-b]pyridazin-3-yl)-1H-pyrrolo[2,3-b]pyridin-2-yl)pyrrolidine-1-carbonyl)piperidin-1-yl)ethan-1-one] |
| 1000 to 30000 nM | COCCOc1cnn2ncc(-c3ccnc4[nH]ccc34)c2c1 [Example 24, 5-(2-Methoxyethoxy)-3-(1H-pyrrolo[2,3-b]pyridin-4-yl)pyrazolo[1,5-b]pyridazine] |
| < 100 nM | C=CC(=O)Nc1cccc(C(=O)N2CC[C@@H](c3cc4c(-c5cnn6ncccc56)ccnc4[nH]3)C2)c1 (single isomer, unassigned) [Example 149, N-(3-(3-(4-(Pyrazolo[1,5-b]pyridazin-3-yl)-1H-pyrrolo[2,3-b]pyridin-2-yl)pyrrolidine-1-carbonyl)phenyl)acrylamide] |
| 1000 to 30000 nM | C=CC(=O)N1CCC[C@@H](C(=O)NCc2cc3c(-c4cnn5ncccc45)ccnc3[nH]2)C1 [Example 184, (R)-1-Acryloyl-N-((4-(pyrazolo[1,5-b]pyridazin-3-yl)-1H-pyrrolo[2,3-b]pyridin-2-yl)methyl)piperidine-3-carboxamide] |
| < 100 nM | O=C(CCl)Nc1ccccc1C(=O)N1CCC(c2cc3c(-c4cnn5ncccc45)ccnc3[nH]2)C1 (centres unmarked) [Example 169, 2-Chloro-N-(2-(3-(4-(pyrazolo[1,5-b]pyridazin-3-yl)-1H-pyrrolo[2,3-b]pyridin-2-yl)pyrrolidine-1-carbonyl)phenyl)acetamide] |
| < 100 nM | C#CC(=O)Nc1ccc(C(=O)N2CCC(c3cc4c(-c5cnn6ncccc56)ccnc4[nH]3)C2)cc1 (centres unmarked) [Example 128, N-(4-(3-(4-(Pyrazolo[1,5-b]pyridazin-3-yl)-1H-pyrrolo[2,3-b]pyridin-2-yl)pyrrolidine-1-carbonyl)phenyl)propiolamide] |
| < 100 nM | O=C(CCl)NCC(=O)N1CCC(c2cc3c(-c4cnn5ncccc45)ccnc3[nH]2)C1 (centres unmarked) [Example 157, 2-Chloro-N-(2-oxo-2-(3-(4-(pyrazolo[1,5-b]pyridazin-3-yl)-1H-pyrrolo[2,3-b]pyridin-2-yl)pyrrolidin-1-yl)ethyl)acetamide] |

— patent US11407767B2, “Heterocyclyl substituted pyrrolopyridines that are inhibitors of the CDK12 kinase” (The University of Nottingham, priority 2017, dated 2022)
